Earlier results, collected in patent US5919783A, “Indoline and azaindoline derivatives as 5-HT1D alpha receptor agonists” (Merck Sharp & Dohme Ltd., priority 1994, dated 1999).

Legend:
[1] = system: human 5-HT1Dα and 5-HT1Dβ receptor subtypes; settings: cf. WO-A-91/17174, Table 1
[2] = therapeutic doses

CNS(=O)(=O)Cc1ccc2[nH]cc(CCN(C)C)c2c1 [sumatriptan]
discrimination between human 5-HT1Dα and 5-HT1Dβ receptor subtypes (in words) [1]: barely discriminates | adverse events in humans [2]: adverse cardiovascular events
